Experimental data published in patent US5158940A (priority 1990, dated 1992).
Where a name gives a salt, the structure may show the parent alone.

Legend:
[1] = system: rheumatoid arthritis; type: in vivo, person
Text: A person was initially diagnosed in 1975 with polyarthritis and an elevated serum rheumatoid factor level. Since then, the patient had required almost uninterrupted treatment with either supraphysiologic doses of steroid or remission-inducing agents. These included hydroxycloroquine, gold salts, cytoxan and most recently, penicillamine together with prednisone.
Prior to initiating suramin therapy, penicillamine and prednisone were discontinued and the patient was placed on physiologic replacement doses of hydrocortisone. […] Their serum rheumatoid factor titer was 1:2560. Serum antinuclear antibodies were absent and both anti-DNA screen and LE cell test were negative.

[2] = in vivo; cited from earlier work
[3] = system: reverse transcriptase enzyme; details: in vitro; JAMA 258 p. 1347-51 (1987); cited from earlier work
[4] = system: human immunodeficiency virus (HIV); details: in vitro; JAMA 258 p. 1347-51 (1987); cited from earlier work
[5] = system: various growth factors; details: in vitro; J. Cellular Physiology 132 p. 143-8 (1987); cited from earlier work
[6] = system: cytoplasmic and intranuclear enzymes; details: Cancer Res. 47 p. 4694-8 (1987) and J. Clin. Onc. 7 p. 499-508 (1989); cited from earlier work
[7] = system: parasitic infections; details: one gram bolus parenterally once per week for six weeks, total six grams; cited from earlier work
[8] = nine months after initial start, no suramin after third cycle at six months
[9] = treatment period plus three months afterwards without suramin

## Cc1ccc(C(=O)Nc2ccc(S(=O)(=O)O)c3cc(S(=O)(=O)O)cc(S(=O)(=O)O)c23)cc1NC(=O)c1cccc(NC(=O)Nc2cccc(C(=O)Nc3cc(C(=O)Nc4ccc(S(=O)(=O)O)c5cc(S(=O)(=O)O)cc(S(=O)(=O)O)c45)ccc3C)c2)c1 [Suramin, hexasodium salt of 8,8'-(carbonyl-bis(imino-3,1-phenylenecarbonylimino(4-methyl-3,1-phenylene)carbonylimo))bis-1,3,5-naphthalenetrisulfonic acid]
[1]; at the end of therapy
  formal rheumatologic evaluation (inflammatory joint disease, synovial proliferation): virtually no inflammatory joint disease with only minimal synovial proliferation in the ulnar carpal region of their right wrist
[1]; follow up hand photograph
  joint abnormalities in follow up hand photograph: failed to show any significant change in their minimal joint abnormalities
[1]; in vivo
  hematologic, hepatic or renal toxicity: did not experience any significant hematologic, hepatic or renal toxicity
[1]; initially documented after three months, more pronounced at five months
  size of rheumatoid nodules: regression in the size of their multiple rheumatoid nodules
[1]; [8]
  arthritic symptoms at nine months: continued to remain without arthritic symptoms
  size of remaining rheumatoid nodules: remained unchanged
[1]; start of third cycle at five months
  disappearance of rheumatoid nodules: complete disappearance of as many as a third
[1]; [9]
  arthritic symptoms: improvement in their arthritic symptoms
  synovial swelling: decreased synovial swelling
[2]
  plasma half-life: 45 to 55 days
[3]
  ability to inhibit the reverse transcriptase enzyme: inhibit the reverse transcriptase enzyme
[4]
  ability to revert the cytopathic effect of HIV: revert the cytopathic effect of human immunodeficiency virus (HIV) in vitro
[5]
  ability to inhibit the activity of various growth factors: inhibit the activity of various growth factors in vitro
[6]
  binding to a variety of cytoplasmic and intranuclear enzymes: bind to a variety of cytoplasmic and intranuclear enzymes
[7]
  effectiveness for treating parasitic infections: generally effective for treating parasitic infections
